Data taken from patent publication US5292742A, “Angiotensin II receptor blocking 2,3,6 substituted quinazolinones” (American Cyanamid Company, priority 1993, dated 1994).

Target: T1, Angiotensin II Receptor (Bos taurus, UniProt P25104)
T1 construct: The brownish tissue forming the adrenal cortex is scraped off and finely minced with scissors before homogenization; tissue Maxwell-Cohen (local slaughter house); host or cells: beef adrenal cortex, microsomal (100,000 x g) membranes
T1 sequence (P25104 1-359): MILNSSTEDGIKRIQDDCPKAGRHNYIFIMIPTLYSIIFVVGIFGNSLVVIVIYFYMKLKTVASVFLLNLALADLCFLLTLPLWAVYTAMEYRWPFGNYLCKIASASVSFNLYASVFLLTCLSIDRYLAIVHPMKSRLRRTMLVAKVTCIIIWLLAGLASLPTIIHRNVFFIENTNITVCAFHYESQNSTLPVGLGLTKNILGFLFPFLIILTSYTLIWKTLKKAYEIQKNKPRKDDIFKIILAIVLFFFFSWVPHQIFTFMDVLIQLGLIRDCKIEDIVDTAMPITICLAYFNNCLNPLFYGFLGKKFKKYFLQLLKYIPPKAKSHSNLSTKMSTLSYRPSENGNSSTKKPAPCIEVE
Assay: [125I](Sar1,Ile8)AngII receptor binding assay, bovine adrenal cortex membranes
Settings: beef adrenal cortex membranes
Source text: Beef adrenals are obtained from a local slaughter house (Maxwell-Cohen). [^125 I](Sar^1,ILe^8)-AngII, S.A. 2200 Ci/mmole, is purchased from Dupont (NEN®, Boston, Mass.). All unlabeled AngII analogs, Dimethylsulfoxide (DMSO), nucleotides, bovine serum albumin (BSA) are purchased from Sigma Chemical Co., St. Louis, MO U.S.A.
Approximately sixteen (16) to twenty (20) beef adrenal glands are processed as follows: fresh adrenal glands received on crushed ice are cleaned of fatty tissues and the tough membranes encapsulating the glands are removed and discarded. The brownish tissue forming the adrenal cortex is scraped off and finely minced with scissors before homogenization. Care is taken to avoid contamination with medullary tissue during dissection. The scraped cortices are suspended in twenty volumes of an ice-cold buffer medium consisting of 10 mM Tris.HCl (pH 7.4 at 22° C.) and containing 1.0 mM EDTA and 0.2M sucrose. Unless otherwise indicated, all subsequent operations are done at 4° C. […] The homogenate is centrifuged first at low speed (3,000 ×g) for 10 min. […] A 100 ul aliquot is withdrawn and the protein content of the preparation is determined by the Lowry's method (Lowry, O.H., Rosebrough, N.F., Farr, A.L. and Randall, R.J., Protein measurement with Folin phenol reagent. J. Biol. Chem., […], 265-275, 1951). […]

Row | Compound | IC50
1 | CCCCc1nc2ccc(C3=NN4CCCCC4C3)cc2c(=O)n1Cc1ccc(-c2ccccc2-c2nnn[nH]2)cc1 (centres unmarked) [Example 11] | 56.4 nM
2 | CCCCc1nc2ccc(C3=NN4CCCC4C3)cc2c(=O)n1Cc1ccc(-c2ccccc2-c2nnn[nH]2)cc1 (centres unmarked) [Example 10, 2-Butyl-6-(3a,4,5,6-tetrahydro-3H-pyrrolo[1,2-b]-pyrazol-2-yl)-3-[[2'-(1H-tetrazol-5-yl)[1,1'-biphenyl]-4-yl]methyl]-4(3H)-quinazolinone] | 102 nM
